Laboratory results from PMC3388080 (PLoS ONE, 2012).
Marks after values point to notes of the source that are not given here.

System: male Sprague-Dawley rats
Test: EEG/EMG/Tcore/LMA telemetry sleep study 1 (SB-334867 vs ZOL)
Assay type: in vivo, rat
Protocol: All rodent electroencephalograph (EEG) studies were performed at SRI International. Three groups of eight male Sprague-Dawley rats (300±25 g; Charles River, Wilmington, MA) were implanted with chronic recording devices (F40-EET, Data Sciences Inc., St Paul, MN) for continuous recordings of EEG, electromyograph (EMG), core body temperature (Tcore), and LMA via telemetry as previously described. Data recording and scoring were performed as previously reported (see also Supplemental Material and Methods). The EEG and EMG data were scored in 10 sec epochs for waking (W), rapid eye movement sleep (REM), and non-REM sleep (NR). Tcore and LMA (counts per minute) were analyzed as hourly means. Data from the EEG studies are reported in hourly means such that the hourly time ZT1 refers to the hour between time points ZT0 and ZT1.
For each of the three separate studies, a repeated measures counter-balanced design was employed in which each rat received five separate dosings. […] All dosings were administered ip in a volume of 2 ml/kg. A minimum of 3 d elapsed between doses. Dosing occurred during the middle of the rats’ normal active period at the start of ZT19 and was typically completed within 10 min. Animals were continuously recorded for 6 h prior to dosing and for 18 h following dosing.

Cc1nc2ccc(NC(=O)Nc3ccnc4cccnc34)cc2o1.Cl [SB-334867, 1-(2-methylbenzoxazol-6-yl)-3-[1], [5]naphthyridin-4-yl-urea hydrochloride]
cumulative NR (in words) (3 and 30 mg/kg ip, first 4 and 6 h periods): increased cumulative NR
NR bout duration (6 h Average, 3 mg/kg ip): 1.17 ± 0.12 ^+
REM bout duration (6 h Average, 3 mg/kg ip): 1.28 ± 0.14^+
W bout duration (6 h Average, 3 mg/kg ip): 4.29 ± 0.34
NR bout duration (6 h Average, 10 mg/kg ip): 1.00 ±0.12 ^+
REM bout duration (6 h Average, 10 mg/kg ip): 1.24 ±0.14^+
W bout duration (6 h Average, 10 mg/kg ip): 4.19 ±0.30
NR bout duration (6 h Average, 30 mg/kg ip): 1.18 ± 0.12 ^+
REM bout duration (6 h Average, 30 mg/kg ip): 1.05 ± 0.08^+
W bout duration (6 h Average, 30 mg/kg ip): 3.87 ± 0.21
Number of NR bouts (6 h Total, 3 mg/kg ip): 72.88 ± 5.37
Number of REM bouts (6 h Total, 3 mg/kg ip): 15.25 ±2.54
Number of W bouts (6 h Total, 3 mg/kg ip): 61.5 ±5.45
Number of NR bouts (6 h Total, 10 mg/kg ip): 76.13 ± 4.99
Number of REM bouts (6 h Total, 10 mg/kg ip): 14.38 ± 1.55
Number of W bouts (6 h Total, 10 mg/kg ip): 64.13 ± 3.89
Number of NR bouts (6 h Total, 30 mg/kg ip): 71.38 ± 2.20
Number of REM bouts (6 h Total, 30 mg/kg ip): 19.25 ± 1.50*^+
Number of W bouts (6 h Total, 30 mg/kg ip): 65.38 ± 3.54
NR during the subsequent light period (in words) (ZT3, 10 and 30 mg/kg ip, vs vehicle): NR decreased
NR bout duration (ZT19, 3 mg/kg ip): 1.02 ± 0.14^+
Number of NR bouts (ZT19, 3 mg/kg ip): 4.63 ± 2.07
Number of REM bouts (ZT19, 3 mg/kg ip): 0.50 ± 0.33
Number of W bouts (ZT19, 3 mg/kg ip): 2.88 ± 0.93
REM bout duration (ZT19, 3 mg/kg ip): 1.21 ± 0.38^+
W bout duration (ZT19, 3 mg/kg ip): 31.21 ± 8.79
NR bout duration (ZT19, 10 mg/kg ip): 1.56 ± 0.59
Number of NR bouts (ZT19, 10 mg/kg ip): 7.88 ± 2.52
Number of REM bouts (ZT19, 10 mg/kg ip): 1.00 ± .050
Number of W bouts (ZT19, 10 mg/kg ip): 6.25 ± 1.78
REM bout duration (ZT19, 10 mg/kg ip): 0.95 ± 0.09
W bout duration (ZT19, 10 mg/kg ip): 16.83 ± 6.40
NR bout duration (ZT19, 30 mg/kg ip): 1.29 ± 0.24
Number of NR bouts (ZT19, 30 mg/kg ip): 7.75 ± 1.93
Number of REM bouts (ZT19, 30 mg/kg ip): 1.50 ± 0.46
Number of W bouts (ZT19, 30 mg/kg ip): 5.75 ± 1.10
REM bout duration (ZT19, 30 mg/kg ip): 1.04 ± 0.27
W bout duration (ZT19, 30 mg/kg ip): 13.73 ± 6.71
NR bout duration (ZT20, 3 mg/kg ip): 1.29 ± 0.15^+
Number of NR bouts (ZT20, 3 mg/kg ip): 16.25 ± 2.43
Number of REM bouts (ZT20, 3 mg/kg ip): 4.38 ± 1.21
Number of W bouts (ZT20, 3 mg/kg ip): 12.25 ± 2.06
REM bout duration (ZT20, 3 mg/kg ip): 1.34 ± 0.16^+
W bout duration (ZT20, 3 mg/kg ip): 3.39 ± 0.78
NR bout duration (ZT20, 10 mg/kg ip): 1.14 ± 0.12^+
Number of NR bouts (ZT20, 10 mg/kg ip): 17.50 ± 3.34
Number of REM bouts (ZT20, 10 mg/kg ip): 4.38 ± 1.19
Number of W bouts (ZT20, 10 mg/kg ip): 13.88 ± 2.94
REM bout duration (ZT20, 10 mg/kg ip): 1.16 ± 0.14^+
W bout duration (ZT20, 10 mg/kg ip): 9.58 ± 7.23
NR bout duration (ZT20, 30 mg/kg ip): 1.41 ± 0.26^+
Number of NR bouts (ZT20, 30 mg/kg ip): 13.75 ± 1.79
Number of REM bouts (ZT20, 30 mg/kg ip): 3.88 ± 0.99
Number of W bouts (ZT20, 30 mg/kg ip): 12.63 ± 1.53
REM bout duration (ZT20, 30 mg/kg ip): 1.27 ± 0.14^+
W bout duration (ZT20, 30 mg/kg ip): 3.30 ± 0.88
NR bout duration (ZT21, 3 mg/kg ip): 1.45 ± 0.28
Number of NR bouts (ZT21, 3 mg/kg ip): 20.75 ± 2.40
Number of REM bouts (ZT21, 3 mg/kg ip): 5.63 ± 0.65
Number of W bouts (ZT21, 3 mg/kg ip): 16.38 ± 1.96
REM bout duration (ZT21, 3 mg/kg ip): 1.28 ± 0.18
W bout duration (ZT21, 3 mg/kg ip): 1.44 ± 0.20
NR bout duration (ZT21, 10 mg/kg ip): 1.13 ± 0.25
Number of NR bouts (ZT21, 10 mg/kg ip): 18.13 ± 2.03
Number of REM bouts (ZT21, 10 mg/kg ip): 3.75 ± 0.82
Number of W bouts (ZT21, 10 mg/kg ip): 14.88 ± 1.83
REM bout duration (ZT21, 10 mg/kg ip): 1.38 ± 0.21
